test system: NLRP3 inflammasome; assay: NLRP3 inflammasome activation: ASC-SPECK formation in gramicidin-stimulated THP-1 cells; type: cell-based; settings: Homo sapiens, THP-1, inhibition of ASC SPECK formation; PMA-treated human monocytic THP-1 cells, compound 1 h before 12.5 μg/ml gramicidin, 3-hour treatment
Description: Activation of the canonical NLRP3 inflammasome requires two steps, priming and activation. A priming signal such as a pathogen activated molecular patterns (PAMPs) or danger-activated molecular patterns (DAMPs) are recognized by Toll-like receptors leads to nuclear factor kappa B (NF-KB)-mediated signaling. […] The second step is activation which induces oligomerization of NLRP3 and subsequent assembly of NLRP3, apoptosis-associated speck-like protein containing a CARD (ASC), and procaspase-1 into an inflammasome complex. This triggers the transformation of procaspase-1 to caspase-1, and the production and secretion of mature IL-1β and IL-18 (Kim et al., J. Inflamm. 2015, 12, 41; Ozaki et al., J. Inflamm. Res. 2015, 8, 15-27; Rabeony et al., Eur. J. Immunol. 2015, 45, 2847). During inflammasome complex assembly, the oligomerization of NLRP3 triggers the nucleation of ASC and an event commonly referred to as “ASC SPECK” formation, as it is identified in the cell as a discrete puncta within the cell after staining and visualization of ASC using common immunocytochemical methods.
The ability of compounds to inhibit NLRP3 inflammasome activation was determined in vitro by monitoring formation of the ASC-SPECK in human monocytic THP-1 cells after stimulation. THP-1 cells (ATCC catalog #TIB-202) were maintained in complete growth media containing Roswell Park Memorial Institute RPMI (ATCC catalog #30-2001), 10% heat inactivated fetal bovine serum, 1× penicillin/streptomycin and 0.05 mM 2-mercaptoethanol. At the start of the assay, undifferentiated THP-1 cells were plated at a density of 20,000 cells per well in a 384-well plate (Poly-D-lysine coated Cell Carrier Ultra microplate, Perkin Elmer catalog #6057500) in complete growth media supplemented with 10 ng/ml phorbol 12-myristate 13-acetate (PMA; Sigma catalog #P8139), and then incubated overnight. The next day, media was replaced with assay media (RPMI (Gibco catalog #11875-093), 0.01% bovine serum albumin (BSA)). Compounds were serially diluted in DMSO and then added to wells one hour prior to the addition of 12.5 μg/ml Gramicidin (Enzo Lifescience, catalog #ALX-350-233-M005). All incubations were carried out at 37° C. (5% CO2/95% air). Following a 3-hour treatment with gramicidin, cells are fixed with 4% paraformaldehyde and stored at 4° C. until immunofluorescence staining.
Immunofluorescence staining: Anti-ASC antibody (MBL catalog #D086-3) was desalted and labeled with Alexa 488 antibody labeling kit (Thermo catalog #A20181) prior to use as described below. After fixation, the following steps were carried out at rt. Cells were first permeabilized with 0.3% polyethylene glycol tert-octylphenyl ether (Triton X-100) in phosphate-buffered saline (PBS) for 15 minutes and then incubated in blocking buffer containing 5% goat serum, 0.3% polyethylene glycol sorbitan monolaurate (Tween-20) and 0.03% sodium azide in PBS for 1 hour. Cells were stained with a mixture of ASC-Alexa 488 antibody (diluted 1:200 in blocking buffer) and nuclear stain DRAQ5 (1:5000 in blocking buffer, Thermo catalog #62251) in blocking buffer for 1 hour. Following a wash with 0.3% polyethylene glycol sorbitan monolaurate (Tween-20) in PBS, plates were imaged with an Opera Phenix High Content Screening System. The number of DRAQ5 positive cells containing ASC SPECKS were quantified in each well.
Data analysis: EC50 values were calculated by standard curve-fitting analysis using an internally developed program in TIBCO Spotfire software.

Row | Structure (SMILES) | EC50 [µM]
1 | Cc1cc(C(F)(F)F)cc(O)c1-c1cnc2cn(C[C@@H]3CCN(C)C3)nc2n1 [Example 6, (R)-3-methyl-2-(2-((1-methylpyrrolidin-3-yl)methyl)-2H-pyrazolo[3,4-b]pyrazin-6-yl)-5-(trifluoromethyl)phenol] | 0.035
2 | Cc1cc(C(F)(F)F)cc(O)c1-c1cnc2cn([C@H]3COC[C@@H]3O)nc2n1 [Example 32, (3R,4S)-4-[6-[2-hydroxy-6-methyl-4-(trifluoromethyl)phenyl]pyrazolo[3,4-b]pyrazin-2-yl]tetrahydrofuran-3-ol] | 0.034
3 | Cc1cc(C(F)(F)F)cc(O)c1-c1cnc2cn(C34COC(CO)(C3)C4)nc2n1 [Example 41, 2-[2-[1-(hydroxymethyl)-2-oxabicyclo[2.1.1]hexan-4-yl]pyrazolo[3,4-b]pyrazin-6-yl]-3-methyl-5-(trifluoromethyl)phenol] | 0.078
4 | Cc1cc(C(F)(F)F)cc(O)c1-c1cnc2cn([C@@H]3CC[C@H](C#N)C3)nc2n1 (racemic) [Example 20, (1S,3R and 1R,3S)-3-(6-(2-hydroxy-6-methyl-4-(trifluoromethyl)phenyl)-2H-pyrazolo[3,4-b]pyrazin-2-yl)cyclopentane-1-carbonitrile] | 0.186
5 | Cc1cc(C(F)(F)F)cc(O)c1-c1cnc2cn([C@H]3CCS(=O)(=O)C3)nc2n1 [Example 31, 2-[2-[(3S)-1,1-dioxothiolan-3-yl]pyrazolo[3,4-b]pyrazin-6-yl]-3-methyl-5-(trifluoromethyl)phenol] | 0.265
6 | CCN1C[C@H](Cn2cc3ncc(-c4c(C)cc(C(F)(F)F)cc4O)nc3n2)OC1=O [Example 110, (R)-3-ethyl-5-((6-(2-hydroxy-6-methyl-4-(trifluoromethyl)phenyl)-2H-pyrazolo[3,4-b]pyrazin-2-yl)methyl)oxazolidin-2-one] | 0.168
7 | Cc1cc(C(F)(F)F)cc(O)c1-c1cnc2cn(CC(C)(C)C#N)nc2n1 [Example 12, 3-(6-(2-hydroxy-6-methyl-4-(trifluoromethyl)phenyl)-2H-pyrazolo[3,4-b]pyrazin-2-yl)-2,2-dimethylpropanenitrile] | 0.658
8 | COc1ccc(CN2CC(n3nc4nc(-c5c(C)cc(C(F)(F)F)cc5O)cnc4c3C)CCC2=O)cc1 (racemic) [Example 107, (R and S)-5-(6-(2-hydroxy-6-methyl-4-(trifluoromethyl)phenyl)-3-methyl-2H-pyrazolo[3,4-b]pyrazin-2-yl)-1-(4-methoxybenzyl)piperidin-2-one] | 0.279
9 | Cc1cc(C(F)(F)F)cc(O)c1-c1cnc2cn(C[C@H]3CNC(=O)C3)nc2n1 [Example 7, (R)-4-((6-(2-hydroxy-6-methyl-4-(trifluoromethyl)phenyl)-2H-pyrazolo[3,4-b]pyrazin-2-yl)methyl)pyrrolidin-2-one] | 0.046
10 | Cc1cc(C(F)(F)F)cc(O)c1-c1cnc2cn(C3COC4CC3C4)nc2n1 (racemic) [Example 25, (S and R)-2-(2-(2-oxabicyclo[3.1.1]heptan-4-yl)-2H-pyrazolo[3,4-b]pyrazin-6-yl)-3-methyl-5-(trifluoromethyl)phenol] | 0.261
11 | Cc1cc(C(F)(F)F)cc(O)c1-c1cnc2cn([C@H]3CCOC[C@@H]3C)nc2n1 (single isomer, unassigned) [Example 87, 3-methyl-2-(2-((3R,4S or 3S,4R)-3-methyltetrahydro-2H-pyran-4-yl)-2H-pyrazolo[3,4-b]pyrazin-6-yl)-5-(trifluoromethyl)phenol] | 0.564
12 | Cc1cc(C(F)(F)F)cc(O)c1-c1cnc2cn(C34COC(C)(C3)C4)nc2n1 [Example 27, 3-methyl-2-[2-(1-methyl-2-oxabicyclo[2.1.1]hexan-4-yl)pyrazolo[3,4-b]pyrazin-6-yl]-5-(trifluoromethyl)phenol] | 0.193
13 | Cc1cc(C(F)(F)F)cc(O)c1-c1cnc2cn([C@H]3C[C@H](Cl)C3)nc2n1 [Example 49, 2-(2-((1R,3R)-3-chlorocyclobutyl)-2H-pyrazolo[3,4-b]pyrazin-6-yl)-3-methyl-5-(trifluoromethyl)phenol] | 0.031

same assay, conditions: inhibition of ASC SPECK formation; PMA-treated human monocytic THP-1 cells, compound 1 h before 12.5 μg/ml gramicidin, 3-hour treatment

Row | Structure (SMILES) | EC50 [µM]
14 | Cc1cc(C(F)(F)F)cc(O)c1-c1cnc2cn(C3(C)CC(F)C3)nc2n1 (single isomer, unassigned) [Example 74, 2-(2-((1R,3R or 1S,3S)-3-fluoro-1-methylcyclobutyl)-2H-pyrazolo[3,4-b]pyrazin-6-yl)-3-methyl-5-(trifluoromethyl)phenol] | 0.066
15 | Cc1cc(C(F)(F)F)cc(O)c1-c1cnc2cn([C@H]3CCOC[C@H]3F)nc2n1 (single isomer, unassigned) [Example 102, 2-(2-((3R,4R or 3S,4S)-3-fluorotetrahydro-2H-pyran-4-yl)-2H-pyrazolo[3,4-b]pyrazin-6-yl)-3-methyl-5-(trifluoromethyl)phenol] | 0.314
16 | Cc1cc(C(F)(F)F)cc(O)c1-c1cnc2cn(C3CCOCC34CC4)nc2n1 (single isomer, unassigned) [Example 99, (R or S)-2-(2-(5-oxaspiro[2.5]octan-8-yl)-2H-pyrazolo[3,4-b]pyrazin-6-yl)-3-methyl-5-(trifluoromethyl)phenol] | 0.58
17 | Cc1cc(C(F)(F)F)cc(O)c1-c1cnc2c(C)n(C3CCC(=O)NC3)nc2n1 (single isomer, unassigned) [Example 108, (R or S)-5-(6-(2-hydroxy-6-methyl-4-(trifluoromethyl)phenyl)-3-methyl-2H-pyrazolo[3,4-b]pyrazin-2-yl)piperidin-2-one] | 0.066
18 | Cc1cc(C(F)(F)F)cc(O)c1-c1cnc2cn(C3CCc4nnn(C)c4C3)nc2n1 (single isomer, unassigned) [Example 69, (S or R)-3-methyl-2-(2-(1-methyl-4,5,6,7-tetrahydro-1H-benzo[d][1,2,3]triazol-6-yl)-2H-pyrazolo[3,4-b]pyrazin-6-yl)-5-(trifluoromethyl)phenol] | 0.015
19 | Cc1cc(C(F)(F)F)cc(O)c1-c1cnc2cn([C@H]3C[C@H]4C[C@@H]3CO4)nc2n1 (single isomer, unassigned) [Example 4, 2-(2-((1R,4S,5S or 1S,4R,5R)-2-oxabicyclo[2.2.1]heptan-5-yl)-2H-pyrazolo[3,4-b]pyrazin-6-yl)-3-methyl-5-(trifluoromethyl)phenol] | 0.034
20 | Cc1cc(C(F)(F)F)cc(O)c1-c1cnc2cn(C3CCOCC3(C)C)nc2n1 (single isomer, unassigned) [Example 98, (S or R)-2-(2-(3,3-dimethyltetrahydro-2H-pyran-4-yl)-2H-pyrazolo[3,4-b]pyrazin-6-yl)-3-methyl-5-(trifluoromethyl)phenol] | 0.237
21 | Cc1cc(C(F)(F)F)cc(O)c1-c1cnc2cn(C3CCc4nnc(C(F)(F)F)n4C3)nc2n1 (single isomer, unassigned) [Example 71, (S or R)-3-methyl-5-(trifluoromethyl)-2-(2-(3-(trifluoromethyl)-5,6,7,8-tetrahydro-[1,2,4]triazolo[4,3-a]pyridin-6-yl)-2H-pyrazolo[3,4-b]pyrazin-6-yl)phenol] | 0.198
22 | Cc1cc(C(F)(F)F)cc(O)c1-c1cnc2cn(CC3CC(=O)N(C)C3)nc2n1 (single isomer, unassigned) [Example 59, (S or R)-4-((6-(2-hydroxy-6-methyl-4-(trifluoromethyl)phenyl)-2H-pyrazolo[3,4-b]pyrazin-2-yl)methyl)-1-methylpyrrolidin-2-one] | 0.02
23 | CCc1nnc2n1CC(n1cc3ncc(-c4c(C)cc(C(F)(F)F)cc4O)nc3n1)CC2 (single isomer, unassigned) [Example 72, (R or S)-2-(2-(3-ethyl-5,6,7,8-tetrahydro-[1,2,4]triazolo[4,3-a]pyridin-6-yl)-2H-pyrazolo[3,4-b]pyrazin-6-yl)-3-methyl-5-(trifluoromethyl)phenol] | 0.02

From patent publication US20250195511A1, “INDAZOLE DERIVATIVES USEFUL AS INHIBITORS OF NOD-LIKE RECEPTOR PROTEIN 3” (Merck Sharp & Dohme LLC, priority 2023, published 2025)
